Reference: patent US6403343B2, “Method of producing a taxane-type diterpene and a method of obtaining cultured cells which produce the taxane-type dilterpene at a high rate” (Mitsui Chemicals, Inc., priority 1993, dated 2002)

Key:
Assay type in all cases: cell-based
[1] = tested on: cultured cells of T. media; experiment: Taxane yield, T. media cultured cells with jasmonic acids added; details: 250 μM added on 14th day, 7 more days
Experimental: The procedure of Example 6 was carried out except that cultured cells of T. media were used.
The procedure of Example 13 was carried out except that cultured cells of T. media were used.
The procedure of Example 22 was carried out except that cultured cells of T. media were used.

[2] = tested on: cultured cells of Taxus baccata LINN, layer of 1.07 g/ml or less; experiment: Same culture using cells of the specific gravity layer of 1.07 g/ml or less (Ficoll), jasmonic acids added; details: 250 μM added on 14th day, 7 more days; cells of layer of 1.07 g/ml or less
Experimental: (§1) The cells with accelerated growth rate obtained by the method of Example 1 were fractionated firstly by a stainless steel mesh and cell clusters having the size of 250-840 μm were obtained. A medium having a specific gravity of 1.07 (g/ml) was produced by the use of Ficoll and the above-mentioned cells were layered over it and centrifuged at 700 rpm for 6 minutes. The cells were fractionated into two layers according to the difference of the specific gravity. The cells contained in the layer of 1.07 g/ml or less were fractionated and washed with 2% sucrose solution three times or more, to wash off Ficoll. After the washing, 1 g (fresh weight) of the cells was transferred to an Erlenmeyer flask containing 20 ml of liquid Woody Plant Medium and shake culture was carried out at 25° C. for 14 days. […] After completing the culture, the procedure of Example 1 was carried out.
as §1, with “growth rates” for “growth rate”, “Example 8” for “Example 1”, “was inoculated” for “was transferred”
as §1, with “Example 15” for “Example 1”, “was inoculated” for “was transferred”

[3] = tested on: cultured cells of Taxus baccata LINN; experiment: Taxane-type diterpene yield and cell yield, shake culture of Taxus baccata cells with a jasmonic acid (or jasmone) added
[4] = tested on: cultured cells of Taxus brevifolia NUTT; experiment: Taxane yield, Taxus brevifolia cultured cells with jasmonic acids added; details: 250 μM added on 14th day, 7 more days
Experimental: After completing the culture, the procedure of Example 1 was carried out.
After completing the culture, the procedure of Example 8 was carried out.
After completing the culture, the procedure of Example 15 was carried out.

[5] = 0.01 μM added on 14th day, 7 more days
[6] = 0.1 μM added on 14th day, 7 more days
[7] = 1 μM added on 14th day, 7 more days
[8] = 10 μM added on 14th day, 7 more days
[9] = 25 μM added 4 times every two days from 7th day, total 100 μM
[10] = 100 μM added on 7th day, 14 more days
[11] = 100 μM added on 14th day, 7 more days
[12] = 100 μM added on first day, 20 more days
[13] = 250 μM added on 14th day, 7 more days
[14] = 500 μM added on 14th day, 7 more days
[15] = 1000 μM added on 14th day, 7 more days

CC/C=C\C[C@H]1[C@@H](CC(=O)OC)CC[C@@H]1O [methyl cucurbate]
cell yield [1]: 12.3 g/L
yield of baccatin III [1]: 5.2 mg/L
yield of cephalomannine [1]: 0.2 mg/L
yield of taxol [1]: 3.9 mg/L
cell yield [2]: 9.7 g/L
yield of baccatin III [2]: 22.2 mg/L
yield of cephalomannine [2]: 3.8 mg/L
yield of taxol [2]: 29.7 mg/L
cell yield [3, 5]: 11.3 g/L
yield of baccatin III [3, 5]: 0.3 mg/L
yield of cephalomannine [3, 5]: 2.6 mg/L
yield of taxol [3, 5]: 4.3 mg/L
cell yield [3, 6]: 11.1 g/L
yield of baccatin III [3, 6]: 0.3 mg/L
yield of cephalomannine [3, 6]: 3.1 mg/L
yield of taxol [3, 6]: 5.4 mg/L
cell yield [3, 7]: 10.4 g/L
yield of baccatin III [3, 7]: 0.3 mg/L
yield of cephalomannine [3, 7]: 3.3 mg/L
yield of taxol [3, 7]: 6.7 mg/L
cell yield [3, 8]: 10.4 g/L
yield of baccatin III [3, 8]: 0.5 mg/L
yield of cephalomannine [3, 8]: 4.0 mg/L
yield of taxol [3, 8]: 11.3 mg/L
cell yield [3, 9]: 10.5 g/L
yield of baccatin III [3, 9]: 14.6 mg/L
yield of cephalomannine [3, 9]: 4.1 mg/L
yield of taxol [3, 9]: 18.2 mg/L
cell yield [3, 10]: 9.5 g/L
yield of baccatin III [3, 10]: 8.4 mg/L
yield of cephalomannine [3, 10]: 4.1 mg/L
yield of taxol [3, 10]: 16.8 mg/L
cell yield [3, 11]: 9.8 g/L
yield of baccatin III [3, 11]: 7.2 mg/L
yield of cephalomannine [3, 11]: 4.4 mg/L
yield of taxol [3, 11]: 15.7 mg/L
cell yield [3, 12]: 6.1 g/L
yield of baccatin III [3, 12]: 0.8 mg/L
yield of cephalomannine [3, 12]: 2.8 mg/L
yield of taxol [3, 12]: 3.9 mg/L
cell yield [3, 13]: 9.6 g/L
yield of baccatin III [3, 13]: 10.6 mg/L
yield of cephalomannine [3, 13]: 5.3 mg/L
yield of taxol [3, 13]: 17.7 mg/L
cell yield [3, 14]: 9.3 g/L
yield of baccatin III [3, 14]: 12.0 mg/L
yield of cephalomannine [3, 14]: 3.0 mg/L
yield of taxol [3, 14]: 13.1 mg/L
cell yield [3, 15]: 5.7 g/L
yield of baccatin III [3, 15]: 1.2 mg/L
yield of cephalomannine [3, 15]: 2.8 mg/L
yield of taxol [3, 15]: 4.2 mg/L
cell yield [4]: 11.0 g/L
yield of baccatin III [4]: 1.2 mg/L
yield of cephalomannine [4]: 0.3 mg/L
yield of taxol [4]: 1.3 mg/L

COC(=O)C[C@H]1CCC(=O)[C@H]1C/C=C\CCO [methyl tuberonate]
cell yield [1]: 9.5 g/L
yield of baccatin III [1]: 10.4 mg/L
yield of cephalomannine [1]: 0.5 mg/L
yield of taxol [1]: 5.4 mg/L
cell yield [2]: 12.2 g/L
yield of baccatin III [2]: 17.4 mg/L
yield of cephalomannine [2]: 3.1 mg/L
yield of taxol [2]: 28.3 mg/L
cell yield [3, 5]: 14.3 g/L
yield of baccatin III [3, 5]: 0.4 mg/L
yield of cephalomannine [3, 5]: 1.3 mg/L
yield of taxol [3, 5]: 4.6 mg/L
cell yield [3, 6]: 13.5 g/L
yield of baccatin III [3, 6]: 0.5 mg/L
yield of cephalomannine [3, 6]: 1.5 mg/L
yield of taxol [3, 6]: 5.5 mg/L
cell yield [3, 7]: 13.2 g/L
yield of baccatin III [3, 7]: 0.7 mg/L
yield of cephalomannine [3, 7]: 1.8 mg/L
yield of taxol [3, 7]: 6.9 mg/L
cell yield [3, 8]: 13.0 g/L
yield of baccatin III [3, 8]: 0.9 mg/L
yield of cephalomannine [3, 8]: 2.2 mg/L
yield of taxol [3, 8]: 14.8 mg/L
cell yield [3, 9]: 12.9 g/L
yield of baccatin III [3, 9]: 13.5 mg/L
yield of cephalomannine [3, 9]: 2.3 mg/L
yield of taxol [3, 9]: 22.5 mg/L
cell yield [3, 10]: 12.5 g/L
yield of baccatin III [3, 10]: 10.5 mg/L
yield of cephalomannine [3, 10]: 2.1 mg/L
yield of taxol [3, 10]: 15.6 mg/L
cell yield [3, 11]: 12.7 g/L
yield of baccatin III [3, 11]: 12.2 mg/L
yield of cephalomannine [3, 11]: 2.4 mg/L
yield of taxol [3, 11]: 16.5 mg/L
cell yield [3, 12]: 7.1 g/L
yield of baccatin III [3, 12]: 1.0 mg/L
yield of cephalomannine [3, 12]: 1.3 mg/L
yield of taxol [3, 12]: 4.0 mg/L
cell yield [3, 13]: 12.5 g/L
yield of baccatin III [3, 13]: 14.5 mg/L
yield of cephalomannine [3, 13]: 2.2 mg/L
yield of taxol [3, 13]: 21.1 mg/L
cell yield [3, 14]: 11.6 g/L
yield of baccatin III [3, 14]: 15.0 mg/L
yield of cephalomannine [3, 14]: 2.3 mg/L
yield of taxol [3, 14]: 10.6 mg/L
cell yield [3, 15]: 7.5 g/L
yield of baccatin III [3, 15]: 1.2 mg/L
yield of cephalomannine [3, 15]: 1.8 mg/L
yield of taxol [3, 15]: 3.9 mg/L
cell yield [4]: 10.0 g/L
yield of baccatin III [4]: 1.4 mg/L
yield of cephalomannine [4]: 0.5 mg/L
yield of taxol [4]: 3.3 mg/L
